In publication PMC3006138, “Fexinidazole – A New Oral Nitroimidazole Drug Candidate Entering Clinical Development for the Treatment of Sleeping Sickness” (PLoS Neglected Tropical Diseases, 2010):
Read-outs that look alike come from different tables or passages of the source.

What was measured:
[1] = Rat 28-day toxicokinetics; type: in vivo; settings: plasma, po; for AUC: read-out: AUC within 24 hours post dosing; for half-life: read-out: apparent terminal half-life (converted)
Method: In the rat repeated-dose toxicokinetic study, fexinidazole was administered orally by gavage once a day for 28 consecutive days to ten or fifteen Crl:CD (SD)IGS BR rats/sex/group at doses of 50, 200, or 800 mg/kg/day. A control group received the vehicle alone (5% Tween 80/0.5% methocel). Ten animals/sex/group were sacrificed at the end of the treatment period on day 29 or 30 of study. The remaining 5 animals/sex/group in the control and high-dose groups were sacrificed on day 43 at the end of a 2-weeks observation period. Systemic exposure to fexinidazole and its sulfoxide and sulfone metabolites was evaluated in three additional animals/sex/group. Samples were taken at predose, and 30 min, 1, 2, 4, 8 and 24 h after dosing on days 1, 14, and 28, and in addition at 48 and 72 h after treatment on day 28.
Toxicokinetic Report for the study No. 0504-2007
SD Standard deviation of the mean […]
t1/2,z Terminal half-life tmax Time to peak plasma concentration
ULOQ Upper limit of quantification
The study was conducted according to the study protocol and related amendment.
Fexinidazole was orally given by gavage once a day for 28 days to male and female Sprague Dawley rats according to the following scheme
Fexinidazole was suspended with 5% Tween 80 in 0.5% Methyl cellulose 400 cP.
6.2. Sample Collection and Handling
Blood samples (about 0.25 mL/sampling time) were withdrawn from retro-orbital sinus plexus under isofluorane anesthesia and put in heparinized plastic tubes kept on a ice-water bath, then centrifuged for 10 min at 1200g at +4°C and two aliquots of about 50 μL of plasma were stored in a freezer at -80°C until analysis. Blood was taken from three rats/gender/dose on Days 1 and 14 at pre-dose and 0.5, 1, 2, 4, 8 and 24 hours after dosing, on Day 28 at pre-dose and 1, 2, 4, 8, 24, 48 and 72 hours after dosing. After the administration of the vehicle, the samples were taken from three rats/gender at pre-dose and […]
6.3. Bioanalytical Method
Rat plasma concentrations of Fexinidazole and its sulfoxide (M1) and sulfone (M2) metabolites were determined by a validated LC/MS/MS method. The calibration range for the assay was 5-1000 ng/mL for Fexinidazole and 25-25000 ng/mL for M1 and M2.
Study samples containing analytes concentrations above the upper limit of quantitation were diluted with blank matrix prior to analysis.
6.4. Pharmacokinetic Calculations
Pharmacokinetic evaluation was carried out using non-compartmental approach with the aid […]
Excel spreadsheet (Microsoft Inc., Seattle, USA). […]
In the calculations, the undetectable concentrations between detectable ones were ignored.
After each dose level, Cmax and tmax of Fexinidazole and sulfoxide and sulfone metabolites […]
linear trapezoidal rule up to the last detectable concentration. On Day 28, since the blood […]
24 hours post dosing was calculated and denoted AUC0-24. This AUC was calculated in order to compare AUC values on Day 28 to those on Day 1 and Day 14. On Day 28, in addition, the half-life of the terminal phase, t1/2,z, was determined by linear regression analysis of the natural-log concentration vs. time curve, where t1/2,z = ln(2)/slope of the regression line.
Fexinidazole and metabolites accumulation ratios, based on Cmax (RA,Cmax), AUC0-24 (RA,AUC0-24) and AUC0-t(last) (RA,AUC0-t(last)), were calculated as the ratio between the parameters obtained on Day 14 and Day 28 to the corresponding one at Day 1. […]
pharmacokinetic parameters of each compound sorted by dose, gender and day of dosing. […]
compound are reported in Tables 1 and 2, whilst individual and mean parameters of each […]
Individual and mean (±SD, CV%) plasma
2A1 - 19A1 of Appendix 1. Individual plasma concentrations of Fexinidazole and both metabolites are plot in Figures 1 - 9, whilst the mean concentrations are plot in Figures 10 - 15. Mean normalized Cmax and AUC0-t(last) values of Fexinidazole and metabolites vs. dose are plot in Figures 16 - 21.
In-study bioanalytical validation data are reported in Appendix 2. All analytical batches met […]

hERG = hERG (Homo sapiens, UniProt Q12809); assay: hERG tail current, patch clamp in HEK 293 cells; settings: for Residual Current (% of control): 37°C
Chain of hERG (Q12809 whole entry): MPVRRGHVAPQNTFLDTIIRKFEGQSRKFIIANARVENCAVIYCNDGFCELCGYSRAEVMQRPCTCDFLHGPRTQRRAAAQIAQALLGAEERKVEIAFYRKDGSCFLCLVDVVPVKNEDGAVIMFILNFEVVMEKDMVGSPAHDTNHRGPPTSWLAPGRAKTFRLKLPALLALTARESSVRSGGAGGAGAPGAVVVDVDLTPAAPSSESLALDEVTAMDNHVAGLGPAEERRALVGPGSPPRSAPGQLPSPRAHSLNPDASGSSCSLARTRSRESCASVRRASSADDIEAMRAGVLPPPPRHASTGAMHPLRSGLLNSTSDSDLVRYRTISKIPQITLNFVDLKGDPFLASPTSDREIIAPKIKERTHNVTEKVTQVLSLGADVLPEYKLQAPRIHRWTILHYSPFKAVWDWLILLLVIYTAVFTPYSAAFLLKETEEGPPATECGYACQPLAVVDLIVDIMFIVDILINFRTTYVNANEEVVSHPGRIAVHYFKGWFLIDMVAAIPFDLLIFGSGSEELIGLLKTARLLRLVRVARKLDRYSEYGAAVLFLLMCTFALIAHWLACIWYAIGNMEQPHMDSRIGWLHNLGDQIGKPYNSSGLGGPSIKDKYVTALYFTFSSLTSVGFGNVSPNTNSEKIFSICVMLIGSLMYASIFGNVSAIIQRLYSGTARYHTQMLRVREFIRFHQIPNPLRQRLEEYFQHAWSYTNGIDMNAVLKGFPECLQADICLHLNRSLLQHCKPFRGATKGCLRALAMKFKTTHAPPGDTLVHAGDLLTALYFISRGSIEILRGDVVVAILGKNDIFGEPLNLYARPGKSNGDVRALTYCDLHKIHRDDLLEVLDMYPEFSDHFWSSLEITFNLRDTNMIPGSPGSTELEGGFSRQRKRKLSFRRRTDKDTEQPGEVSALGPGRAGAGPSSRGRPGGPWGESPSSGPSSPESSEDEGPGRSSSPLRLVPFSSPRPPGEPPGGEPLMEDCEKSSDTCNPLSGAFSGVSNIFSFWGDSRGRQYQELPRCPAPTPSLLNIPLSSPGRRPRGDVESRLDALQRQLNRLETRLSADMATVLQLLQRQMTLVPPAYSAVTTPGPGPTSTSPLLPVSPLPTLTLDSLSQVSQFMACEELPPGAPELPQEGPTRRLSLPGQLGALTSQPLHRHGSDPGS
Method: Formulation and stored at 2-4°C when not in use. When in use Tyrode solution was stored at
CaCl2, 1 MgCl2, 5.5 glucose and 5 HEPES. During the patch-clamp experiments the Tyrode
4.2.4. Storage and Formulation of Internal Solution
The internal solution was stored frozen at – 20°C until the day of use. The composition of
the internal solution was (in mM): 110 K+- aspartate, 23 KCl, 3 MgCl2, 1 EGTA, 5 HEPES,
0.4 GTP (Na+ salt), 5 ATP (Na+ salt), 5 creatine phosphate, 0.4 CaCl2 (pH 7.3 with KOH).
4.3.1. Source and Maintenance of hERG Transfected Cells
HEK 293 cells stably transfected with hERG cDNA, supplied by bSys GmbH Switzerland,
continuously maintained and passaged in sterile culture flasks containing a mixture of
Dulbecco’s modified Eagle’s medium and nutrient mixture F-12 supplemented with 10%
foetal bovine serum, 0.9% Penicillin/Streptomycin solution, Hygromycin B and Blasticidin.
HEK 293 cells were passaged at a confluence of about 80%. For electrophysiology studies,
the cells were seeded in Petri dishes (35x10 mm), with culture medium containing
tetracycline to activate channel expression, at a density that enables isolated cells to be
selected for patch-clamping. The dishes were stored in a humidified, gassed (5% CO2)
Petri dishes containing the cells to be used for electrophysiological studies were mounted on
the stage of an inverted microscope and were superfused with Tyrode solution. Membrane
currents were recorded (Axopatch 200B, Axon Instruments) in the whole cell configuration
by using suction pipettes (Harvard apparatus, 1.5 mm o.d. x 0.86 mm i.d.) with tip resistance
in the range of 2.5-3.5 MΩ. Gigaohm seals were formed between the patch electrodes and
individual cells. If the quality of the seal was judged to be poor, the electrode was replaced
and the process repeated with a different cell. Once a stable patch was achieved, recording
was commenced in voltage-clamp mode, with the cell initially clamped at –80 mV. Series
resistance and capacitance were compensated to about 70% of their initial value. Cells were
perfused through a microperfusion system allowing for solution changes to occur within
approximately one second. Computer software (pClamp version 8.0; Axon Instruments) was
used to generate voltage clamp protocols, acquire data and analyze current traces. The data
were stored on a computer hard disk for later analysis. Experiments were performed at a
temperature in the recording chamber of 37 ± 1°C, which was maintained with a temperature
Cells stably expressing hERG were held at –80 mV. Onset and steady state block of the
hERG channel current (IKr) due to the test items were monitored using a pulse pattern with
fixed amplitudes (first depolarization: -50 mV for 500 ms; second depolarization: +20 mV
for 2 seconds; hyperpolarization: -50 mV for 7 seconds). This pulse pattern was repeated
every 15 seconds, and current amplitude at the onset of the second step to –50 mV (“peak
tail current”) was monitored until a steady state was obtained. Recordings were acquired at
the sampling interval of 2 kHz and low-pass filtered at 1 kHz. The steady state peak tail
current was monitored and recorded in vehicle solution and then the test item was applied to
the bath solution. At the end the reference item E4031 was applied to block 100% of the
current for determination of the current “leak” response to the stimulation protocol. The
current amplitude was continually monitored through the onset of the voltage step to –50
mV until a new steady state level of current was achieved. Each cell was exposed to a single
test substance concentration.
4.5. Statistical Analysis
For each cell the effect of the test items was ascertained by calculating the residual current as
percentage of control (% control). All data were corrected for “leak” current by subtracting
Each value represents the average current
recorded from 3 sequential voltage pulses. Data from individual cells was collected and the

[2] = Sprague Dawley (Crl:CD (SD)IGS BR), 50 mg/kg/day, Day 28, female
[3] = Sprague Dawley (Crl:CD (SD)IGS BR), 50 mg/kg/day, Day 28, male
[4] = Sprague Dawley (Crl:CD (SD)IGS BR), 200 mg/kg/day, Day 28, female
[5] = Sprague Dawley (Crl:CD (SD)IGS BR), 200 mg/kg/day, Day 28, male
[6] = Sprague Dawley (Crl:CD (SD)IGS BR), 800 mg/kg/day, Day 28, female (n=2)
[7] = Sprague Dawley (Crl:CD (SD)IGS BR), 800 mg/kg/day, Day 28, male
[8] = Sprague-Dawley (Crl:CD (SD)IGS BR), 50 mg/kg/day, 50 mg/kg/day po, day 1
[9] = Sprague-Dawley (Crl:CD (SD)IGS BR), 50 mg/kg/day, 50 mg/kg/day po, day 14
[10] = Sprague-Dawley (Crl:CD (SD)IGS BR), 200 mg/kg/day, 200 mg/kg/day po, day 1
[11] = both sexes, Sprague-Dawley (Crl:CD (SD)IGS BR), 200 mg/kg/day, 200 mg/kg/day po, day 14
[12] = both sexes, Sprague-Dawley (Crl:CD (SD)IGS BR), 800 mg/kg/day, 800 mg/kg/day po, day 1
[13] = both sexes, Sprague-Dawley (Crl:CD (SD)IGS BR), 800 mg/kg/day, 800 mg/kg/day po, day 14

Cn1c([N+](=O)[O-])cnc1COc1ccc([S+](C)[O-])cc1 (stereo not shown) [Fexinidazole sulfoxide]
AUC [1, 2]: 53.8 ± 15.7 µg·h/mL | half-life [1, 2]: 6.1 ± 3.8 h | AUC [1, 3]: 29.5 ± 8.92 µg·h/mL | half-life [1, 3]: 5 ± 2 h | AUC [1, 4]: 138 ± 14.2 µg·h/mL | half-life [1, 4]: 8.1 ± 3.1 h | AUC [1, 5]: 122 ± 29.3 µg·h/mL | half-life [1, 5]: 6.3 ± 2.9 h | AUC [1, 6]: 292 ± 40.3 µg·h/mL | half-life [1, 6]: 8.6 ± 2.3 h | AUC [1, 7]: 130 ± 56.8 µg·h/mL | half-life [1, 7]: 6.6 ± 4.1 h | Cmax [1, 8]: 2700 ± 1400 ng/mL | Tmax [1, 8]: 2.5 ± 1.22 h | AUC(0-t) ([1]; Sprague-Dawley (Crl:CD (SD)IGS BR), 50 mg/kg/day, 50 mg/kg/day po, day 1, read-out: AUC0-t(last)): 15.4 ± 9.28 µg·h/mL | Cmax [1, 9]: 5230 ± 3280 ng/mL | Tmax [1, 9]: 2.17 ± 0.98 h | AUC(0-t) ([1]; Sprague-Dawley (Crl:CD (SD)IGS BR), 50 mg/kg/day, 50 mg/kg/day po, day 14, read-out: AUC0-t(last)): 29.8 ± 19.4 µg·h/mL | Cmax [1, 10]: 11400 ± 2170 ng/mL | Tmax [1, 10]: 2.33 ± 0.82 h | AUC(0-t) ([1]; both sexes, Sprague-Dawley (Crl:CD (SD)IGS BR), 200 mg/kg/day, 200 mg/kg/day po, day 1, read-out: AUC0-t(last)): 85.9 ± 14.1 µg·h/mL | Cmax [1, 11]: 15800 ± 3170 ng/mL | Tmax [1, 11]: 3.33 ± 1.03 h | AUC(0-t) ([1]; both sexes, Sprague-Dawley (Crl:CD (SD)IGS BR), 200 mg/kg/day, 200 mg/kg/day po, day 14, read-out: AUC0-t(last)): 118 ± 38.9 µg·h/mL | Cmax [1, 12]: 31700 ± 3740 ng/mL | Tmax [1, 12]: 4.67 ± 1.63 h | AUC(0-t) ([1]; both sexes, Sprague-Dawley (Crl:CD (SD)IGS BR), 800 mg/kg/day, 800 mg/kg/day po, day 1, read-out: AUC0-t(last)): 410 ± 101 µg·h/mL | Cmax [1, 13]: 25000 ± 8990 ng/mL | Tmax [1, 13]: 2.67 ± 1.03 h | AUC(0-t) ([1]; both sexes, Sprague-Dawley (Crl:CD (SD)IGS BR), 800 mg/kg/day, 800 mg/kg/day po, day 14, read-out: AUC0-t(last)): 277 ± 160 µg·h/mL | Cmax ([1]; female, Sprague Dawley (Crl:CD (SD)IGS BR), 50 mg/kg, Day 1, female): 3890 ± 663 ng/mL | AUC(0-t) ([1]; female, Sprague Dawley (Crl:CD (SD)IGS BR), 50 mg/kg, Day 1, female, read-out: AUC0-t(last)): 23.2 ± 5.33 µg·h/mL | Cmax ([1]; female, Sprague Dawley (Crl:CD (SD)IGS BR), 50 mg/kg/day, Day 28, female): 11400 ± 6600 ng/mL | AUC(0-t) ([1]; female, Sprague Dawley (Crl:CD (SD)IGS BR), 50 mg/kg/day, Day 28, female, read-out: AUC0-t(last)): 78 ± 23.6 µg·h/mL | Cmax ([1]; female, Sprague Dawley (Crl:CD (SD)IGS BR), 200 mg/kg, Day 1, female): 12800 ± 1130 ng/mL | AUC(0-t) ([1]; female, Sprague Dawley (Crl:CD (SD)IGS BR), 200 mg/kg, Day 1, female, read-out: AUC0-t(last)): 91.4 ± 19.7 µg·h/mL | Cmax ([1]; female, Sprague Dawley (Crl:CD (SD)IGS BR), 200 mg/kg/day, Day 28, female): 22300 ± 1470 ng/mL | AUC(0-t) ([1]; female, Sprague Dawley (Crl:CD (SD)IGS BR), 200 mg/kg/day, Day 28, female, read-out: AUC0-t(last)): 153 ± 36.9 µg·h/mL | Cmax ([1]; female, Sprague Dawley (Crl:CD (SD)IGS BR), 800 mg/kg, Day 1, female): 30600 ± 2620 ng/mL | AUC(0-t) ([1]; female, Sprague Dawley (Crl:CD (SD)IGS BR), 800 mg/kg, Day 1, female, read-out: AUC0-t(last)): 453 ± 84.7 µg·h/mL | Cmax ([1]; female, Sprague Dawley (Crl:CD (SD)IGS BR), 800 mg/kg/day, Day 28, female (n=2)): 25800 ± 2050 ng/mL | AUC(0-t) ([1]; female, Sprague Dawley (Crl:CD (SD)IGS BR), 800 mg/kg/day, Day 28, female (n=2), read-out: AUC0-t(last)): 331 ± 57.3 µg·h/mL | Cmax ([1]; male, Sprague Dawley (Crl:CD (SD)IGS BR), 50 mg/kg, Day 1, male): 1500 ± 413 ng/mL | AUC(0-t) ([1]; male, Sprague Dawley (Crl:CD (SD)IGS BR), 50 mg/kg, Day 1, male, read-out: AUC0-t(last)): 7.66 ± 2.38 µg·h/mL | Cmax ([1]; male, Sprague Dawley (Crl:CD (SD)IGS BR), 50 mg/kg/day, Day 28, male): 4530 ± 664 ng/mL | AUC(0-t) ([1]; male, Sprague Dawley (Crl:CD (SD)IGS BR), 50 mg/kg/day, Day 28, male, read-out: AUC0-t(last)): 30.6 ± 10.9 µg·h/mL | Cmax ([1]; male, Sprague Dawley (Crl:CD (SD)IGS BR), 200 mg/kg, Day 1, male): 9990 ± 2130 ng/mL | AUC(0-t) ([1]; male, Sprague Dawley (Crl:CD (SD)IGS BR), 200 mg/kg, Day 1, male, read-out: AUC0-t(last)): 80.5 ± 4.31 µg·h/mL | Cmax ([1]; male, Sprague Dawley (Crl:CD (SD)IGS BR), 200 mg/kg/day, Day 28, male): 11600 ± 2400 ng/mL | AUC(0-t) ([1]; male, Sprague Dawley (Crl:CD (SD)IGS BR), 200 mg/kg/day, Day 28, male, read-out: AUC0-t(last)): 138 ± 45 µg·h/mL | Cmax ([1]; male, Sprague Dawley (Crl:CD (SD)IGS BR), 800 mg/kg, Day 1, male): 32800 ± 4950 ng/mL | AUC(0-t) ([1]; male, Sprague Dawley (Crl:CD (SD)IGS BR), 800 mg/kg, Day 1, male, read-out: AUC0-t(last)): 366 ± 113 µg·h/mL | Cmax ([1]; male, Sprague Dawley (Crl:CD (SD)IGS BR), 800 mg/kg/day, Day 28, male): 16600 ± 2080 ng/mL | AUC(0-t) ([1]; male, Sprague Dawley (Crl:CD (SD)IGS BR), 800 mg/kg/day, Day 28, male, read-out: AUC0-t(last)): 268 ± 64.1 µg·h/mL | Residual Current (% of control) (hERG; 1 µM): 87.06±0.92% | Residual Current (% of control) (hERG; 5 µM): 101.39±8.64% | Residual Current (% of control) (hERG; 30 µM): 98.04±1.52% | effect on hERG peak tail current (hERG; 1, 5 and 30 µM): judged not to affect hERG peak tail current
